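A five-concentration, 48-hour dose response in 96-well plates underlies each endpoint, interpolated linearly between surrounding concentrations. At the GI50, growth is halved.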 Activity calls are given as the source filed them. No stated cut-off is given here; in the data, active = GI50 up to about 1.1 µM and inactive = higher.

Among the test systems are UO-31; SF-539; A549; COLO 205; OVCAR-4; K562; NCI-H460; LOX IMVI; SK-MEL-5; SW-620; HL-60; SNB-19; HCT-15; OVCAR-8; KM12; SNB-75; SN12C; CCRF-CEM; NCI-H23; SK-MEL-28.
Holding throughout (assay): growth of human tumour cells (NCI), 48 h

`O=[N+]([O-])c1ccc2[nH]c3c(-c4ccccc4)nccc3c2c1`: the GI50 with UO-31 is 4.41 µM (inactive); in the test with SF-539, 63 µM (inactive); with A549, 15.6 µM (inactive); in the test with COLO 205 it was 34.2 µM (inactive); in the test on OVCAR-4, 10.5 µM (inactive); in the test on K562 it was 1.71 µM (inactive). Also, the GI50 is 14.4 µM (inactive) with NCI-H460; 16.9 µM (inactive) in the test with LOX IMVI; 15.4 µM (inactive) with SK-MEL-5; 36 µM (inactive) with SW-620; 6 µM (inactive) in the test with HL-60; 15.3 µM (inactive) with SNB-19. Also, the GI50 in the test with HCT-15 is 8.59 µM; in the test with OVCAR-8, 22 µM (inactive); with KM12 it was 34.8 µM (inactive); in the test on SNB-75 it was 11.7 µM (inactive); in the test with SN12C, 25.1 µM (inactive); in the test with CCRF-CEM, 4.09 µM (inactive). The GI50 in the test on NCI-H23 was 32.1 µM (inactive); in the test with SK-MEL-28 it was 29.2 µM (inactive).

Turning to `C[N+](C)([O-])CCOc1cc2c(c3ccccc13)-c1ccccc1C2=O`, the GI50 in the test on UO-31 was 17.8 µM (inactive); in the test on SF-539, 15.1 µM (inactive); with A549, 23.3 µM (inactive); with COLO 205, 16.3 µM (inactive); with OVCAR-4, 3.92 µM (inactive); in the test on K562, 15.8 µM (inactive). Also, the GI50 was 9.44 µM (inactive) with NCI-H460; 4.31 µM (inactive) in the test with LOX IMVI; 14.4 µM (inactive) with SK-MEL-5; 12.3 µM (inactive) in the test on SW-620; 14.3 µM (inactive) with HL-60; 13.6 µM (inactive) in the test with SNB-19. The GI50 in the test on HCT-15 is 28.2 µM; in the test on OVCAR-8, 6.27 µM (inactive); in the test on KM12, 13.6 µM (inactive); with SNB-75 it was 17.5 µM (inactive); in the test with SN12C, 9.08 µM (inactive); in the test with CCRF-CEM, 8.2 µM (inactive). In addition, the GI50 in the test on NCI-H23 was 21.5 µM (inactive); in the test with SK-MEL-28, 18.3 µM (inactive).

Take `CN(C)CCNC(=O)c1cccc2ccc(-c3ccc(F)cc3)nc12`: the GI50 with UO-31 is 2.61 µM (inactive); with SF-539, 4.06 µM (inactive); in the test with A549, 3.13 µM (inactive); with COLO 205, 2.43 µM (inactive); in the test on OVCAR-4, 4.38 µM (inactive); in the test with K562, 2.93 µM (inactive). The GI50 in the test on NCI-H460 was 2.86 µM (inactive); with LOX IMVI, 3.32 µM (inactive); with SK-MEL-5, 3.34 µM (inactive); in the test on SW-620, 3.08 µM (inactive); with HL-60, 2.29 µM (inactive); with SNB-19 it was 6.87 µM (inactive). For the same compound, the GI50 in the test on HCT-15 is 3.85 µM; with OVCAR-8, 3.3 µM (inactive); in the test on KM12, 6.67 µM (inactive); in the test on SNB-75 it was 6.95 µM (inactive); with SN12C, 4.85 µM (inactive); in the test with CCRF-CEM, 2.86 µM (inactive). The GI50 in the test with NCI-H23 was 4.47 µM (inactive); with SK-MEL-28, 7.06 µM (inactive).

In the case of `COc1nc(SC)nc2c1cnn2C1OC(C(O)CO)C(OC)C1O` (stereo not given), the GI50 with UO-31 is 34.9 µM (inactive); in the test with SF-539, > 100 µM (inactive); in the test on A549, 52.1 µM (inactive); with COLO 205 it was > 74.5 µM (inactive); in the test on OVCAR-4, 69.3 µM (inactive); with K562, > 100 µM (inactive). Besides, the GI50 in the test on NCI-H460 is 74.6 µM (inactive); in the test with LOX IMVI, > 100 µM (inactive); with SK-MEL-5, > 100 µM (inactive); with SW-620 it was > 100 µM (inactive); in the test with HL-60 it was 52.7 µM (inactive); in the test with SNB-19, > 100 µM (inactive). Besides, the GI50 was greater than 83 µM with HCT-15; > 100 µM (inactive) in the test with OVCAR-8; > 78.9 µM (inactive) in the test on KM12; 48.4 µM (inactive) in the test on SNB-75; > 100 µM (inactive) in the test on SN12C; 58.7 µM (inactive) with CCRF-CEM. The GI50 in the test with NCI-H23 and in the test with SK-MEL-28 was > 100 µM (inactive) in each case.
